The source of these data is PubChem BioAssay (NCI).

Molecules are shown by their SMILES.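 Cells were grown in 96-well plates and exposed to each compound for 48 hours at five concentrations; endpoints were interpolated linearly between bracketing concentrations, or set to the highest concentration if not reached. At the GI50, growth is halved. TGI marks complete inhibition of growth.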

Common to all, as to assay: inhibition of tumour cell growth, NCI panel, 48 h
The subject of experiment [1] is COLO 205 colon.
For experiment [2], the system named is DU-145 prostate.
Experiment [3] relates to HL-60(TB) leukemia.
Experiment [4] relates to HOP-92 NSCLC.
Experiment [5] deals with HS 578T breast.
The test system of experiment [6] is IGROV1 ovarian.
Experiment [7] deals with KM12 colon.
Experiment [8] concerns MDA-MB-435.
The subject of experiment [9] is OVCAR-5 ovarian.
Experiment [10] has as its system SF-539 CNS.

Consider `CCn1c(-c2ccc(OC(C)=O)cc2)c(C)c2cc(OC(C)=O)ccc21`, for which the TGI was 47.4 µM in [1]; 43.3 µM in [2]; 42.9 µM in [3]; > 100 µM in experiment [4]; 54.4 µM in experiment [5]; > 100 µM in [6]. The TGI in experiment [7] was determined as 36.8 µM; in experiment [8], 33.7 µM; in [9], 55 µM; in experiment [10], 43.5 µM.
Consider `Br[C](Br)(Br)[Hg][c]1ccccc1`, for which the GI50 in [1] is 4550 nM; in experiment [2], 18.1 µM; in [3], 2280 nM; in experiment [4] it was 12500 nM; in experiment [5] it was 23.2 µM; in experiment [6] it was 13.8 µM. Further, the GI50 was 15600 nM in experiment [7], 16100 nM in experiment [8], 15.4 µM in experiment [9] and 18000 nM in experiment [10]. Also, the TGI stood at 16.2 µM in experiment [1]; 35 µM in [2]; 6.62 µM in experiment [3]; 25.3 µM in experiment [4]; 66.2 µM in experiment [5]; 27.6 µM in [6]. The TGI in experiment [7] is 29.4 µM; in experiment [8], 30 µM; in experiment [9] it was 28.8 µM; in experiment [10], 33.7 µM.
Regarding `CC(C)C[C@H](NC(=O)/C=C/Cn1ccc2ccccc2c1=O)B(O)O`, the GI50 in [1] is 5930 nM; in [2], 8.78 µM; in experiment [3], 2950 nM; in [4], 6490 nM; in experiment [5] it was 5.03 µM; in experiment [6], 10.8 µM. The GI50 in experiment [7] is 4540 nM; in [8], 1480 nM; in experiment [9], 4.36 µM; in experiment [10] it was 2160 nM. Moreover, the TGI in experiment [1] was > 100 µM; in experiment [2], > 100 µM; in [3], > 100 µM; in experiment [4], 30.4 µM; in experiment [5], > 100 µM; in [6], > 100 µM. Besides, the TGI in experiment [7] is 19 µM; in experiment [8], 2.96 µM; in experiment [9], 39.8 µM; in experiment [10], 6.45 µM.
`COc1cc2[nH]c(C(=O)c3cc(OC)c(OC)c(OC)c3)c(N)c2cc1C#CC1CC1`: the GI50 in experiment [1] is 2400 nM; in experiment [2] it was 3.33 µM; in experiment [3], 3360 nM; in experiment [4], 622 nM; in experiment [5], 3.75 µM; in [6] it was 6.01 µM. For the same molecule, the GI50 was 2510 nM in experiment [7], 332 nM in experiment [8], 11.9 µM in experiment [9] and 815 nM in [10]. For the same molecule, the TGI was 8.34 µM in [1]; > 100 µM in experiment [2]; 22 µM in experiment [3]; 94.5 µM in [4]; > 100 µM in [5]; > 100 µM in experiment [6]. In addition, the TGI was > 100 µM in experiment [7], 1.17 µM in [8], > 100 µM in experiment [9] and 4.77 µM in [10].
`COc1cc(C(=O)c2cc(C)c3[nH]c4ccc(C)cc4c3c2C)cc(OC)c1OC`: the GI50 was < 10 nM in experiment [1]; < 0.01 µM in [2]; < 10 nM in [3]; < 10 nM in [4]; < 0.01 µM in [5]; < 0.01 µM in [6]. For the same molecule, the GI50 in experiment [7] is < 10 nM; in [8] it was < 10 nM; in [9], < 0.01 µM; in experiment [10], < 10 nM. Further, the TGI in experiment [1] was 0.0369 µM; in [3], < 0.01 µM; in experiment [4], 5.86 µM; in experiment [5], > 100 µM; in experiment [7], > 21.6 µM; in [8] it was 0.136 µM. Also, the TGI in experiment [9] is > 100 µM; in [10] it was < 0.01 µM.
Take `O=C(O)C1C(Br)(c2ccccc2)C1(Br)c1ccccc1` (stereo not drawn): the TGI is 37.8 µM in experiment [1]; > 100 µM in experiment [2]; > 100 µM in [3]; > 100 µM in experiment [4]; > 100 µM in experiment [5]; > 100 µM in experiment [6]. Moreover, the TGI in [7], in experiment [8], in experiment [9] and in [10] was > 100 µM throughout.
For the molecule `ClCC[N+]12CC[N+](CCCl)(CC1)C2`, the TGI in experiment [1], in experiment [2], in experiment [3], in [4], in experiment [5] and in [6] was > 100 µM in each case. For the same molecule, the TGI in [7], in experiment [8], in experiment [9] and in experiment [10] was > 100 µM throughout.
Regarding `COc1ccc(/C=C/C(=O)C(CC2CCC2)C(=O)/C=C/c2ccc(OC)c(OC)c2)cc1OC`, the GI50 in experiment [1] is 2410 nM; in experiment [2], 1.71 µM; in experiment [3], 1690 nM; in [4], 2640 nM; in experiment [5] it was 3.19 µM; in [6], 2 µM. The GI50 was 2220 nM in experiment [7], 1490 nM in experiment [8], 2.55 µM in experiment [9] and 1710 nM in [10]. Further, the TGI in experiment [1] is 5 µM; in [2] it was 3.56 µM; in experiment [3] it was 5.94 µM; in experiment [4], 7.9 µM; in experiment [5], > 100 µM; in experiment [6], 5.27 µM. The TGI in experiment [7] came to 6.66 µM; in [8], 3.15 µM; in experiment [9], 5.6 µM; in [10], 3.57 µM.
As to `CC1=C(O)C(=O)C=C2C1=CC=C1[C@@]2(C)CC[C@@]2(C)[C@@H]3C[C@](C)(C(=O)O)CC[C@]3(C)CC[C@]12C`, the TGI in experiment [1] was found to be 0.041 µM; in experiment [2], 0.202 µM; in [3] it was 0.0585 µM; in experiment [4], 0.0777 µM; in experiment [5], 3.7 µM; in experiment [6] it was 0.0428 µM. Further, the TGI in experiment [7] was determined as 0.412 µM; in [8], 0.157 µM; in experiment [9] it was 0.332 µM; in experiment [10], 0.331 µM.
In the case of `O=C1Nc2ccc(F)cc2/C1=C/c1ccc[nH]1`, the GI50 in experiment [1] is > 25000 nM; in [2] it was > 25 µM; in [3], > 25000 nM; in experiment [4], > 14100 nM; in experiment [5], > 25 µM; in experiment [6], 13.4 µM. Moreover, the GI50 in experiment [7] was 787 nM; in experiment [8], > 25000 nM; in [9] it was > 21.3 µM; in [10], > 25000 nM. Moreover, the TGI in experiment [1], in experiment [2], in experiment [3], in experiment [4], in experiment [5] and in experiment [6] was > 25 µM in each case. Moreover, the TGI in experiment [7], in experiment [8], in experiment [9] and in experiment [10] was > 25 µM each time.
On to `Cc1ccc2[nH]c(O)c(N=Nc3ccc(S(N)(=O)=O)cc3)c2c1`, for which the GI50 in experiment [1] was > 24200 nM; in [2] it was 9.46 µM; in experiment [3], > 25000 nM; in experiment [4], > 25000 nM; in [5], 8.24 µM; in experiment [6], > 16.1 µM. Further, the GI50 in [7] was 4170 nM; in [8], 15500 nM; in experiment [9], > 25 µM; in [10] it was 8730 nM. Also, the TGI in [1], in experiment [2], in [3], in [4], in experiment [5] and in experiment [6] was > 25 µM each time. Moreover, the TGI in experiment [7], in experiment [8], in experiment [9] and in [10] was > 25 µM throughout.
`C[C@H](O)C(=O)N1CCC(CCn2c(Sc3cc4c(cc3Br)OCO4)nc3c(N)ncnc32)CC1`: the GI50 was 467 nM in [1]; 0.642 µM in experiment [2]; 409 nM in [3]; 2190 nM in [4]; 1.32 µM in experiment [6]; 424 nM in experiment [7]. Moreover, the GI50 in experiment [8] is 577 nM; in [9], 2.74 µM; in experiment [10] it was 1730 nM. For the same molecule, the TGI in experiment [1] was > 100 µM; in experiment [2] it was > 100 µM; in experiment [3], 14.5 µM; in [4], > 100 µM; in [5], > 100 µM; in experiment [6] it was > 100 µM. For the same molecule, the TGI is 9.86 µM in experiment [7], > 100 µM in [8], > 100 µM in experiment [9] and > 100 µM in [10].
On to `C/C(N=NC(=S)N(C)C)=C1\C=CC=CN1O`, for which the TGI was > 100 µM in experiment [1]; > 100 µM in [2]; > 53 µM in experiment [3]; > 100 µM in [4]; > 100 µM in experiment [5]; > 100 µM in experiment [6]. The TGI in experiment [7], in experiment [8], in experiment [9] and in [10] was > 100 µM in each case. In addition, the GI50 in experiment [10] was < 100 nM.
